System: 324938-238-R-J1-PDC complex spheroid viability
Experiment: Anticancer human tumor 324938-238-R-J1-PDC patient-derived bladder carcinoma cell line growth inhibition
Conditions: for IC50: curve of first compound; for viability, T/C: stronger effect = lower value
Text: Multicellular complex tumor spheroid response to LSD1 Inhibitor Iadademstat in combination with a variety of drugs and investigational agents in selected tumor cell lines
The current study was undertaken to assess response to LSD1 inhibitors in combination with standard-of-care drugs and investigational agents in solid tumor complex spheroid models as well as in the K-562 leukemia. Complex spheroids include a stromal component modeled by human endothelial cells (HUVEC) and fibroblasts modeled by human mesenchymal stem cells (MSCs). The concentration ranges selected for each drug and investigational agent were based upon clinically achievable concentrations if the clinical Cmax of the agent was known.
Compounds. The drugs and investigational agents used in this study are listed on Table 1. All of the agents used, including staurosporine (NSC755774) and gemcitabine (NSC613327), were obtained from the Developmental Therapeutics Program, NCI. FDA-approved anticancer drugs are available from the NCI at http://dtp.nci.nih.gov/branches/dscb/oncology_drugset_explanation.html. Drugs and investigational agents were >95% pure by proton nuclear magnetic resonance (NMR) and liquid chromatography/mass spectrometry (LC/MS). Stock solutions were prepared at 400x in DMSO, stored at -70 degrees C, and diluted in fresh medium prior to their use. The final concentration of DMSO in cell culture wells never exceeded 0.25% (v/v). The FDA-approved anticancer drug set is available from the Developmental Therapeutics Program at https://dtp.cancer.gov/organization/dscb/obtaining/available_plates.htm. All drugs and investigational agents were tested over a range starting from a high concentration at or near the clinical Cmax and decreasing in half-log increments. If the clinical Cmax for an agent had not been determined, the highest concentration tested was 10 microM.
Cell Lines. The patient-derived cancer cell (PDC) lines: 292921-168-R-J2-PDC, K24384-001-R-PDC, and 521955-158-R2-J5-PDC pancreatic carcinomas, 556581-035-R-J1 ovarian carcinoma, 324938-238-R-J1-PDC, 855422-203-R-J1-PDC and 883617-216-R-J1-PDC urothelial bladder carcinomas, 743489-274-T-PDC renal cell carcinoma, 138582-R-J1 Merkel cell tumor, K60290-347-R-J1 and K57222-313-R-J1-PDC glioblastomas, 653999-131-R-J2-PDC, LG0703-F948-PDC, and 349418-098-R-PDC non-small cell lung carcinomas, 885512-296-R-J2-PDC, 171881-019-R-J1-PDC breast carcinomas and 186277-243-T-J2-PDC and 233499-124-R-J2-PDC colon carcinomas were obtained from the NCI Patient-Derived Models Repository (PDMR, https://pdmr.cancer.gov). The established cell lines NCI/ADR-RES (RRID:CVCL_14520 and OVCAR-5 (RRID:CVCL_1628) ovarian carcinomas, 786-O (RRID:CVCL_1051) and A498 (RRID:CVCL_A498) renal cell carcinoma, NCI-H211 (ATCC, cat. CRL-5824; RRID:CVCL_1529), NCI-H196 (ATCC, cat. CRL-5823, RRID:CVCL_1509), SW 1271 (ATCC, cat. CRL-2177, RRID:CVCL_1716) and NCI-H1876 (ATCC, cat. CRL-5902, RRID:CVCL_1503) small cell lung carcinomas, MDA-MB-231 (RRID:CVCL_0062) and MDA-MB-468 (RRID:CVCL_0419)breast carcinomas (10-12). Pooled donor human umbilical vein endothelial cells (HUVEC, Lonza, cat. CC-2519) and human mesenchymal stem cells (hMSC, Lonza, cat. PT-2501) were purchased from Lonza (Walkersville, MD).
Cell Culture. All cells were maintained in an incubator at 37 degrees C and 5% CO2 with 95% humidity. The PDC lines were cultured according to standard operating procedures established by the NCI PDMR (https://pdmr.cancer.gov). Briefly all PDCs were thawed and cultured in Matrigel-coated flasks prepared with a working solution of 1X Ham's F-12 nutrient mix, without supplementation (Invitrogen, Waltham, MA, cat. 11765054), 100 U/mL penicillin-streptomycin (Invitrogen, cat. 15140122), and 2.5% Matrigel (Corning Inc., Corning, NY, cat. 354248) for the first three passages. […]

[1] = second compound 0.1 µM, first compound 0.00949 µM
[2] = second compound 0.1 µM, first compound 0.03 µM
[3] = second compound 0.1 µM, first compound 0.0949 µM
[4] = second compound 0.1 µM, first compound 0.3 µM
[5] = second compound 0.1 µM, first compound 0.949 µM
[6] = second compound 0.1 µM, first compound 3 µM
[7] = second compound 0.316 µM, first compound 0.00949 µM
[8] = second compound 0.316 µM, first compound 0.03 µM
[9] = second compound 0.316 µM, first compound 0.0949 µM
[10] = second compound 0.316 µM, first compound 0.3 µM
[11] = second compound 0.316 µM, first compound 0.949 µM
[12] = second compound 0.316 µM, first compound 3 µM
[13] = second compound 1 µM, first compound 0.00949 µM
[14] = second compound 1 µM, first compound 0.03 µM
[15] = second compound 1 µM, first compound 0.0949 µM
[16] = second compound 1 µM, first compound 0.3 µM
[17] = second compound 1 µM, first compound 0.949 µM
[18] = second compound 1 µM, first compound 3 µM
[19] = second compound 3.16 µM, first compound 0.00949 µM
[20] = second compound 3.16 µM, first compound 0.03 µM
[21] = second compound 3.16 µM, first compound 0.0949 µM
[22] = second compound 3.16 µM, first compound 0.3 µM
[23] = second compound 3.16 µM, first compound 0.949 µM
[24] = second compound 3.16 µM, first compound 3 µM
[25] = second compound 10 µM, first compound 0.00949 µM
[26] = second compound 10 µM, first compound 0.03 µM
[27] = second compound 10 µM, first compound 0.0949 µM
[28] = second compound 10 µM, first compound 0.3 µM
[29] = second compound 10 µM, first compound 0.949 µM
[30] = second compound 10 µM, first compound 3 µM
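Also: spheroids also contain HUVEC and human MSCs and agents combined with iadademstat; spheroids exposed to agents for 7 days before readout.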

**Q.** Which results are given for `CC1(C)CCC(CN2CCN(c3ccc(C(=O)NS(=O)(=O)c4ccc(NCC5CCOCC5)c([N+](=O)[O-])c4)c(Oc4cnc5[nH]ccc5c4)c3)CC2)=C(c2ccc(Cl)cc2)C1` + NC1CC1c1ccc(-c2cccc(O)c2)cc1?
**A.** IC50 (second compound 0.1 µM): 3960 nM; IC50 (second compound 0.316 µM): 4480 nM; IC50 (second compound 1 µM): 3960 nM; IC50 (second compound 3.16 µM): 4190 nM; IC50 (second compound 10 µM): 2230 nM; viability, T/C (second compound 0.1 µM, first compound 0.0316 µM): 94.5%; viability, T/C (second compound 0.1 µM, first compound 0.1 µM): 91.3%; viability, T/C (second compound 0.1 µM, first compound 0.316 µM): 91.7%; viability, T/C (second compound 0.1 µM, first compound 1 µM): 71%; viability, T/C (second compound 0.1 µM, first compound 3.16 µM): 61.5%; viability, T/C (second compound 0.1 µM, first compound 10 µM): 17.3%; viability, T/C (second compound 0.316 µM, first compound 0.0316 µM): 72%; viability, T/C (second compound 0.316 µM, first compound 0.1 µM): 74.9%; viability, T/C (second compound 0.316 µM, first compound 0.316 µM): 73.2%; viability, T/C (second compound 0.316 µM, first compound 1 µM): 66.5%; viability, T/C (second compound 0.316 µM, first compound 3.16 µM): 64.2%; viability, T/C (second compound 0.316 µM, first compound 10 µM): 19.8%; viability, T/C (second compound 1 µM, first compound 0.0316 µM): 78.4%; viability, T/C (second compound 1 µM, first compound 0.1 µM): 74.6%; viability, T/C (second compound 1 µM, first compound 0.316 µM): 66.4%; viability, T/C (second compound 1 µM, first compound 1 µM): 69.8%; viability, T/C (second compound 1 µM, first compound 3.16 µM): 58.5%; viability, T/C (second compound 1 µM, first compound 10 µM): 19.8%; viability, T/C (second compound 3.16 µM, first compound 0.0316 µM): 70.9%; viability, T/C (second compound 3.16 µM, first compound 0.1 µM): 68.3%; viability, T/C (second compound 3.16 µM, first compound 0.316 µM): 68.1%; viability, T/C (second compound 3.16 µM, first compound 1 µM): 74.3%; viability, T/C (second compound 3.16 µM, first compound 3.16 µM): 59.6%; viability, T/C (second compound 3.16 µM, first compound 10 µM): 20.3%; viability, T/C (second compound 10 µM, first compound 0.0316 µM): 70.5%; viability, T/C (second compound 10 µM, first compound 0.1 µM): 67.6%; viability, T/C (second compound 10 µM, first compound 0.316 µM): 66.3%; viability, T/C (second compound 10 µM, first compound 1 µM): 56.8%; viability, T/C (second compound 10 µM, first compound 3.16 µM): 47.9%; viability, T/C (second compound 10 µM, first compound 10 µM): 17.8%

**Q.** Which results are given for `O=C(C=Cc1cccc(S(=O)(=O)Nc2ccccc2)c1)NO` + NC1CCC(NC2CC2c2ccccc2)CC1?
**A.** IC50 (second compound 0.1 µM): 103 nM; IC50 (second compound 0.316 µM): 101 nM; IC50 (second compound 1 µM): 41.7 nM; IC50 (second compound 3.16 µM): 47.2 nM; IC50 (second compound 10 µM): 10.4 nM; viability, T/C [1]: 68%; viability, T/C [2]: 59.9%; viability, T/C [3]: 51.5%; viability, T/C [4]: 37.4%; viability, T/C [5]: 26.7%; viability, T/C [6]: 7.18%; viability, T/C [7]: 61.6%; viability, T/C [8]: 63.2%; viability, T/C [9]: 50.4%; viability, T/C [10]: 34.6%; viability, T/C [11]: 25.9%; viability, T/C [12]: 5.69%; viability, T/C [13]: 64.6%; viability, T/C [14]: 49.9%; viability, T/C [15]: 40.8%; viability, T/C [16]: 32.1%; viability, T/C [17]: 26%; viability, T/C [18]: 3.87%; viability, T/C [19]: 65.3%; viability, T/C [20]: 53.5%; viability, T/C [21]: 40%; viability, T/C [22]: 33.8%; viability, T/C [23]: 24.7%; viability, T/C [24]: 4.61%; viability, T/C [25]: 52.7%; viability, T/C [26]: 47.2%; viability, T/C [27]: 42.2%; viability, T/C [28]: 34.4%; viability, T/C [29]: 30.8%; viability, T/C [30]: 3.5%

**Q.** Which results are given for `NS(=O)(=O)OCC1CC(n2ccc3c(NC4CCc5ccccc54)ncnc32)CC1O` (stereo not given) + NC1CC1c1ccc(-c2cccc(O)c2)cc1?
**A.** IC50 (second compound 0.1 µM): 327 nM; IC50 (second compound 0.316 µM): 230 nM; IC50 (second compound 1 µM): 299 nM; IC50 (second compound 3.16 µM): 300 nM; IC50 (second compound 10 µM): 334 nM; viability, T/C [1]: 97.7%; viability, T/C [2]: 101%; viability, T/C [3]: 95.1%; viability, T/C [4]: 53.2%; viability, T/C [5]: 12.4%; viability, T/C [6]: 12%; viability, T/C [7]: 84.6%; viability, T/C [8]: 84.8%; viability, T/C [9]: 76%; viability, T/C [10]: 42.7%; viability, T/C [11]: 12.5%; viability, T/C [12]: 11.9%; viability, T/C [13]: 95.6%; viability, T/C [14]: 77.8%; viability, T/C [15]: 84.8%; viability, T/C [16]: 49.9%; viability, T/C [17]: 11.3%; viability, T/C [18]: 9.03%; viability, T/C [19]: 88.9%; viability, T/C [20]: 93.6%; viability, T/C [21]: 86.4%; viability, T/C [22]: 50.3%; viability, T/C [23]: 12.2%; viability, T/C [24]: 9.8%; viability, T/C [25]: 74.8%; viability, T/C [26]: 86.4%; viability, T/C [27]: 80.1%; viability, T/C [28]: 52.6%; viability, T/C [29]: 19.7%; viability, T/C [30]: 12.4%

Source: PubChem BioAssay AID1918935 (Molecular Pharmacology Branch, DTP, NCI, 2023)
